Data from ChEMBL document CHEMBL3991601, “The target landscape of clinical kinase drugs” (Science, 2017).
Calls of active or inactive are those of the source.

Assays:
[1] = target: T1, Peroxisomal acyl-coenzyme A oxidase 3 (Homo sapiens, UniProt O15254)
T1 sequence (O15254 whole entry): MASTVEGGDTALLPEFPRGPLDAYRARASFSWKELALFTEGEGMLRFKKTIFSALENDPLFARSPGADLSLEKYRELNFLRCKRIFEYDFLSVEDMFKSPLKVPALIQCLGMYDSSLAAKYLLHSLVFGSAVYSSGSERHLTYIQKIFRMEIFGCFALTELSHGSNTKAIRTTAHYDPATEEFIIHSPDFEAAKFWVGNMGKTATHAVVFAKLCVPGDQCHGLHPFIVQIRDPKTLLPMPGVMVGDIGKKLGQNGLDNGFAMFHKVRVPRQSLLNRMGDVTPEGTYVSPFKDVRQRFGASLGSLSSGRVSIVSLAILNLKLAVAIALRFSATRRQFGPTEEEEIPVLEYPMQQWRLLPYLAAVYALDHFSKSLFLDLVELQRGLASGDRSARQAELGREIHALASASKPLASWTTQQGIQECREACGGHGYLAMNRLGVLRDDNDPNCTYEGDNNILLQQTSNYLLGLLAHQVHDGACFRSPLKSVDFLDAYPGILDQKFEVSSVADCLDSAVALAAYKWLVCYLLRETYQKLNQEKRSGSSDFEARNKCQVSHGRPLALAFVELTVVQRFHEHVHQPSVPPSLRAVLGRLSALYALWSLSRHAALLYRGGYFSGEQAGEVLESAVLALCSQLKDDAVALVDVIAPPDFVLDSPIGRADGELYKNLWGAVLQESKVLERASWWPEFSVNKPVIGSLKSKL

[2] = target: RAC-gamma serine/threonine-protein kinase (Homo sapiens, UniProt Q9Y243)
LIM domain kinase 2 = LIM domain kinase 2 (Homo sapiens, UniProt P53671)
[3] = target: Mitogen-activated protein kinase 8 (Homo sapiens, UniProt P45983)
[4] = target: S-adenosylmethionine synthase isoform type-2 (Homo sapiens, UniProt P31153)
Pyridoxal kinase = target: T2, Pyridoxal kinase (Homo sapiens, UniProt O00764)
T2 sequence (O00764 whole entry): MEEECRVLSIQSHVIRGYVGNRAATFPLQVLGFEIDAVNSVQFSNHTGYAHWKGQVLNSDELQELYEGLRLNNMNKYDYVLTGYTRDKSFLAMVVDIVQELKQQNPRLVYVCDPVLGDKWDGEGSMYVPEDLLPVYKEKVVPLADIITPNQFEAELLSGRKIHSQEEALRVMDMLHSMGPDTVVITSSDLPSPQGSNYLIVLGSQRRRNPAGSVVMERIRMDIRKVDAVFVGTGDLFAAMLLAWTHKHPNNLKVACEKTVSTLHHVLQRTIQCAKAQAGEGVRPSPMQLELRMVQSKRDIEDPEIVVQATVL

[5] = target: T3, Ras-related protein Rab-27A (Homo sapiens, UniProt P51159)
T3 sequence (P51159 whole entry): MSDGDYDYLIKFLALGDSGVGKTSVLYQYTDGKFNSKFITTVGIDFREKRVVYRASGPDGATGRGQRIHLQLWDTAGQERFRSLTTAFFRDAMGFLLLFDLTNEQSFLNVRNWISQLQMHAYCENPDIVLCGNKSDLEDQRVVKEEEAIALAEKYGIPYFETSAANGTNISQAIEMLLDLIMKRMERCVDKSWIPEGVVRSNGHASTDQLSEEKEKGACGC

[6] = target: T4, Serine/threonine-protein kinase TAO2 (Homo sapiens, UniProt Q9UL54)
T4 sequence (Q9UL54 whole entry): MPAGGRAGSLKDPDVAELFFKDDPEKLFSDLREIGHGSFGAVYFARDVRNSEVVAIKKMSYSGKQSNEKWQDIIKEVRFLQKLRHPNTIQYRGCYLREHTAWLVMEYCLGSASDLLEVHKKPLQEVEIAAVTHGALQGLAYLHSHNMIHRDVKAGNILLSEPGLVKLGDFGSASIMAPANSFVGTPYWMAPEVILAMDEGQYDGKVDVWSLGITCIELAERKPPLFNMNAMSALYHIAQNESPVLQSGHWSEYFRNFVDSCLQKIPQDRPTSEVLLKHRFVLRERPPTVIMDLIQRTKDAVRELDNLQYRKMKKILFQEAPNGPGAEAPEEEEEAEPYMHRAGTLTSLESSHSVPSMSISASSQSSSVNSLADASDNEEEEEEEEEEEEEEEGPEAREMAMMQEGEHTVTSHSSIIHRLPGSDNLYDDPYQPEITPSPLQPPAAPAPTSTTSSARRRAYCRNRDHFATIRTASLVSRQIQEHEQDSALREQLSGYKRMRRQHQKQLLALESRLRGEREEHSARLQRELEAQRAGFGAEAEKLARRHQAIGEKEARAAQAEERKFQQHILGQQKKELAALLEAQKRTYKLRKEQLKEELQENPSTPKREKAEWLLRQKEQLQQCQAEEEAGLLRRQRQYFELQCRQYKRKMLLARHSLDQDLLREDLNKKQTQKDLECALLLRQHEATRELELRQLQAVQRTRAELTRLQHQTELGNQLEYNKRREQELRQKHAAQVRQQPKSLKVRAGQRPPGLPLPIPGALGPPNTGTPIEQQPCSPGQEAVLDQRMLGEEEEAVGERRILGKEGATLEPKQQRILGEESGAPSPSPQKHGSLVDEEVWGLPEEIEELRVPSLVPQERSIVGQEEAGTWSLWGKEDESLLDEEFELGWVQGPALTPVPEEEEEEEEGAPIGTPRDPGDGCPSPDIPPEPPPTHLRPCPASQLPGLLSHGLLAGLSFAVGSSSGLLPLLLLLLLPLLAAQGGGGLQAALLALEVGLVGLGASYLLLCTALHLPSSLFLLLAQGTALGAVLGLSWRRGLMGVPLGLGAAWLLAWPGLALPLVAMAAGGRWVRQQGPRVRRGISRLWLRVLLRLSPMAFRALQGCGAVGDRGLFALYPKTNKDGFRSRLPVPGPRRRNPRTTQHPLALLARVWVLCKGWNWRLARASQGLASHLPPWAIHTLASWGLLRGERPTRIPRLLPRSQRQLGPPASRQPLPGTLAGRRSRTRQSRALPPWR

Measured: Kd
Note: in the data inactive means no Kd found up to 30 µM.

Sequence of RAC-gamma serine/threonine-protein kinase (Q9Y243 whole entry, the tested form may be a part): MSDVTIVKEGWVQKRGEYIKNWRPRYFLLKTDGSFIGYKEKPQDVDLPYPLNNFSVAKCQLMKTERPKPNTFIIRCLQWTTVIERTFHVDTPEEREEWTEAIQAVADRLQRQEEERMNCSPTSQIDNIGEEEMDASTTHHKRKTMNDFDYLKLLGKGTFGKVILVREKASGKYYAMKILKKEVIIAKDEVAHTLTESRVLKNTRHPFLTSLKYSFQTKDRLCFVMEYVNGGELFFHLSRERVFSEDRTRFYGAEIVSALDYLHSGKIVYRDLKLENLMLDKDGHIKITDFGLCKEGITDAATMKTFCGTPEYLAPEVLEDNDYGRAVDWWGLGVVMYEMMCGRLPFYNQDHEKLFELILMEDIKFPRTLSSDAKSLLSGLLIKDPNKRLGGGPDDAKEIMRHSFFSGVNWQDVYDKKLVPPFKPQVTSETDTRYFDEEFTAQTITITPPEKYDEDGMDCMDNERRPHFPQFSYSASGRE
Sequence of S-adenosylmethionine synthase isoform type-2 (P31153 whole entry, canonical isoform): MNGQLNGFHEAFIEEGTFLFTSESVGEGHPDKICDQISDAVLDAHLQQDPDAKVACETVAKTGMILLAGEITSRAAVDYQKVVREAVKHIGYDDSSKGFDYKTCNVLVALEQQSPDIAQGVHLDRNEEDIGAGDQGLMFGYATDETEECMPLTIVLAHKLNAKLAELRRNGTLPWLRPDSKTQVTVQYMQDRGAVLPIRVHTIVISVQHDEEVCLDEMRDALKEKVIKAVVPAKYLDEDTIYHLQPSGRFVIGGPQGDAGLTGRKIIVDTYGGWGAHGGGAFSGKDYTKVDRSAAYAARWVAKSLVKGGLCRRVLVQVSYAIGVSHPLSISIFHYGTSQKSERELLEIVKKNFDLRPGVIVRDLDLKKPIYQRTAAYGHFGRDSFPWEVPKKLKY
Sequence of Mitogen-activated protein kinase 8 (P45983 whole entry, canonical isoform): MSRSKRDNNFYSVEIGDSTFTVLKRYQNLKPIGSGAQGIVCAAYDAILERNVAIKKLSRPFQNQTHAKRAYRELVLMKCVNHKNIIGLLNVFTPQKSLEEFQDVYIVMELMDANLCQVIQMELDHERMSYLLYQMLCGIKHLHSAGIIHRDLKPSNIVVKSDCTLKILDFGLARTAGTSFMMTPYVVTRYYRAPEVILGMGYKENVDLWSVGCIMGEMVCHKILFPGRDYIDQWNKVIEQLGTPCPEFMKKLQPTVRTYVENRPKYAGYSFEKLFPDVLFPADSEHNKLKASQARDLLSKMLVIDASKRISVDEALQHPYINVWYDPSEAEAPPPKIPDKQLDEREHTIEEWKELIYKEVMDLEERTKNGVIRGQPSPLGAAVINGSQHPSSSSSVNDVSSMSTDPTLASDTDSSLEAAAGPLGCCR
Sequence of LIM domain kinase 2 (P53671 whole entry, the tested form may be a part): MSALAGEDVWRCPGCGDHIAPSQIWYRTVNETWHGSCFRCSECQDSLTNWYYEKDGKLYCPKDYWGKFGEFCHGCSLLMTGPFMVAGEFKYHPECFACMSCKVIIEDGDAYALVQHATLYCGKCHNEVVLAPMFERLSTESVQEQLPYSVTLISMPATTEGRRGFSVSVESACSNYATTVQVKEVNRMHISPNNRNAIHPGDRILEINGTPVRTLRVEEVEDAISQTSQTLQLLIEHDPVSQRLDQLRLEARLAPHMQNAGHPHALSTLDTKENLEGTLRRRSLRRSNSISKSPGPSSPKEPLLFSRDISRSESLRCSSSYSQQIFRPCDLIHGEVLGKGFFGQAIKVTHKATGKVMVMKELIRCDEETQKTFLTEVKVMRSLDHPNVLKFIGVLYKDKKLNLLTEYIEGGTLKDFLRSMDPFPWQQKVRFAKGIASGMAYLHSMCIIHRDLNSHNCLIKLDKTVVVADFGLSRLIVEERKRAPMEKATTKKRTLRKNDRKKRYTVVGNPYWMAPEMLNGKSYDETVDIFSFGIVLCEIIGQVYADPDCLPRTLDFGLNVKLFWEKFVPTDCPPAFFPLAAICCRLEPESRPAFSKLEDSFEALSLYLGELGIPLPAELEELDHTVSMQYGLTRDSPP

COc1cc2ncnc3c2cc1OCCCCCN(C)Cc1ccc(Br)cc1N3 [JNJ-26483327]
0.006 µM: [2]
inactive: [1] > 30 µM | LIM domain kinase 2 > 30 µM | [3] > 30 µM | [4] > 30 µM | Pyridoxal kinase > 30 µM | [5] > 30 µM | [6] > 30 µM

COc1cc2ncnc(Nc3ccc(F)c(Cl)c3)c2cc1NC(=O)/C=C/CN1CCCCC1 [DACOMITINIB ANHYDROUS]
inactive: [1] > 30 µM | [2] > 30 µM | LIM domain kinase 2 > 30 µM | [3] > 30 µM | [4] > 30 µM | Pyridoxal kinase > 30 µM | [5] > 30 µM | [6] > 30 µM

C#Cc1cccc(Nc2ncnc3cc4c(cc23)OCCOCCOCCO4)c1 [ICOTINIB]
inactive: [1] > 30 µM | [2] > 30 µM | LIM domain kinase 2 > 30 µM | [3] > 30 µM | [4] > 30 µM | Pyridoxal kinase > 30 µM | [5] > 30 µM | [6] > 30 µM

S=C(NCc1ccc2c(c1)OCO2)N1CCN(c2ncnc3c2oc2ccccc23)CC1 [AMUVATINIB]
inactive: [1] > 30 µM | [2] > 30 µM | LIM domain kinase 2 > 30 µM | [3] > 30 µM | [4] > 30 µM | Pyridoxal kinase > 30 µM | [5] > 30 µM | [6] > 30 µM

CN1CCN(c2nc(C3=C(c4c[nH]c5ccccc45)C(=O)NC3=O)c3ccccc3n2)CC1 [SOTRASTAURIN]
inactive: [1] > 30 µM | [2] > 30 µM | LIM domain kinase 2 > 30 µM | [3] > 30 µM | [4] > 30 µM | Pyridoxal kinase > 30 µM | [5] > 30 µM | [6] > 30 µM

CCOc1ccn(-c2ccc(F)cc2)c(=O)c1C(=O)Nc1ccc(Oc2ccnc(N)c2Cl)c(F)c1 [BMS-777607]
inactive: [1] > 30 µM | [2] > 30 µM | LIM domain kinase 2 > 30 µM | [3] > 30 µM | [4] > 30 µM | Pyridoxal kinase > 30 µM | [5] > 30 µM | [6] > 30 µM

CC1(COc2ccc3c(c2)ncn3-c2ccc3cccc(N4CCC(N)CC4)c3n2)COC1 [CRENOLANIB]
inactive: [1] > 30 µM | [2] > 30 µM | LIM domain kinase 2 > 30 µM | [3] > 30 µM | [4] > 30 µM | Pyridoxal kinase > 30 µM | [5] > 30 µM | [6] > 30 µM

CNC(=O)c1cc(COc2nnc(Nc3ccc(Cl)cc3)c3ccoc23)ccn1 [TELATINIB]
inactive: [1] > 30 µM | [2] > 30 µM | LIM domain kinase 2 > 30 µM | [3] > 30 µM | [4] > 30 µM | Pyridoxal kinase > 30 µM | [5] > 30 µM | [6] > 30 µM

COc1cc(F)c(F)c(Nc2ccc(I)cc2F)c1NS(=O)(=O)C1(C[C@H](O)CO)CC1 [REFAMETINIB]
inactive: [1] > 30 µM | [2] > 30 µM | LIM domain kinase 2 > 30 µM | [3] > 30 µM | [4] > 30 µM | Pyridoxal kinase > 30 µM | [5] > 30 µM | [6] > 30 µM

COc1cccc2cc(-c3nc([C@H]4CC[C@H](C(=O)O)CC4)n4ncnc(N)c34)[nH]c12 [OSI-027]
inactive: [1] > 30 µM | [2] > 30 µM | LIM domain kinase 2 > 30 µM | [3] > 30 µM | [4] > 30 µM | Pyridoxal kinase > 30 µM | [5] > 30 µM | [6] > 30 µM

CNC(=O)c1ccc(Nc2ncc(C(F)(F)F)c(NCc3nccnc3N(C)S(C)(=O)=O)n2)cc1 [DEFACTINIB]
inactive: [1] > 30 µM | [2] > 30 µM | LIM domain kinase 2 > 30 µM | [3] > 30 µM | [4] > 30 µM | Pyridoxal kinase > 30 µM | [5] > 30 µM | [6] > 30 µM

Cc1ccc(C(=O)Nc2ccc(Oc3cc4cnn(C)c4cc3-c3cn[nH]c3)c(F)c2)c(=O)n1-c1ccc(F)cc1 [MERESTINIB]
inactive: [1] > 30 µM | [2] > 30 µM | LIM domain kinase 2 > 30 µM | [3] > 30 µM | [4] > 30 µM | Pyridoxal kinase > 30 µM | [5] > 30 µM | [6] > 30 µM

CNC(=O)c1cccc(-c2ccc3c(N4CCOC[C@@H]4C)nc(N4CCOC[C@@H]4C)nc3n2)c1 [VISTUSERTIB]
inactive: [1] > 30 µM | [2] > 30 µM | LIM domain kinase 2 > 30 µM | [3] > 30 µM | [4] > 30 µM | Pyridoxal kinase > 30 µM | [5] > 30 µM | [6] > 30 µM

C=CC(=O)Nc1cccc(Nc2nc(Nc3ccc(N4CCN(C(C)=O)CC4)cc3OC)ncc2C(F)(F)F)c1 [ROCILETINIB]
inactive: [1] > 30 µM | [2] > 30 µM | LIM domain kinase 2 > 30 µM | [3] > 30 µM | [4] > 30 µM | Pyridoxal kinase > 30 µM | [6] > 30 µM

O=C(NOC[C@H](O)CO)c1ccc(F)c(F)c1Nc1ccc(I)cc1F [MIRDAMETINIB]
inactive: [1] > 30 µM | [2] > 30 µM | LIM domain kinase 2 > 30 µM | [3] > 30 µM | Pyridoxal kinase > 30 µM | [5] > 30 µM | [6] > 30 µM

C=CCN(/C=C1/C(=O)O[C@H](COC)[C@@]2(C)C1=C(O)C(=O)C1=C2[C@H](OC(C)=O)C[C@]2(C)C(=O)CC[C@@H]12)CC=C [SONOLISIB]
inactive: [1] > 30 µM | [2] > 30 µM | LIM domain kinase 2 > 30 µM | [3] > 30 µM | [4] > 30 µM | Pyridoxal kinase > 30 µM | [6] > 30 µM

FC(F)(F)c1ccc(CNc2ccc(Cc3c[nH]c4ncc(Cl)cc34)cn2)cn1 [PEXIDARTINIB]
inactive: [1] > 30 µM | [2] > 30 µM | LIM domain kinase 2 > 30 µM | [3] > 30 µM | Pyridoxal kinase > 30 µM | [5] > 30 µM | [6] > 30 µM
